We go through two molecules from patent US11419854B2, “Medicament containing pemafibrate” (KOWA COMPANY, LTD., priority 2017, dated 2022).

The conditions of data set [1]: literature statement; cited from earlier work.
Data set [2] in a line: Pharmacokinetic study of pemafibrate in liver cirrhosis patients (plasma unchanged pemafibrate, LC-MS-MS). In kind it is in vivo, human. The conditions noted are these: for AUC0-t, ratio of geometric mean to persons with normal liver function / Cmax, ratio of geometric mean to persons with normal liver function: single oral dose 0.2 mg, fasting. The procedure: To investigate the effect of liver cirrhosis on the pharmacokinetics of pemafibrate, a clinical study was conducted on mild liver cirrhosis patients, moderate liver cirrhosis patients, fatty liver patients, and persons with normal liver function.
Subjects were classified into four groups according to the criteria in Table 2. As a result, the subjects included 8 mild liver cirrhosis patients, 6 moderate liver cirrhosis, patients, 10 fatty liver patients, and 8 persons with normal liver function.
2. Test Method (1) Administration and Measurement Subjects received a single oral dose of 0.2 mg of study drug (pemafibrate) in the fasting state (fasting for at least 10 hours).
Blood samples were collected at a total of 16 time points immediately before administration of the investigational product and 0.25, 0.5, 1, 1.5, 2, 3, 4, 6, 8, 10, 12, 16, 24, 36, and 48 hours after administration of the investigational product, and plasma concentrations of unchanged pemafibrate were measured by high performance liquid chromatography/tandem mass spectrometry (High-Performance Liquid Chromatography/Tandem Mass Spectrometry: LC-MS-MS method).
To investigate the pharmacokinetics, the pharmacokinetic parameters (maximum concentration (Cmax) and area under the concentration-time curves […] (AUC0-t) of unchanged pemafibrate were evaluated by calculating the ratio of the geometric mean values of the groups of patients with hepatic dysfunction to those with normal hepatic function and their 90% confidence intervals.

The mark [3] stands for this setting: fatty liver patients (n = 10) vs normal liver function (n = 8), plasma unchanged pemafibrate.
The mark [4] stands for this setting: mild liver cirrhosis Child-Pugh class A (n = 8) vs normal liver function (n = 8).
[5] abbreviates: moderate liver cirrhosis Child-Pugh class B (n = 6) vs normal liver function (n = 8).

Turning to `CC(C)(Oc1ccc(CCNC(=O)c2ccc(Cl)cc2)cc1)C(=O)O` [bezafibrate], the route of excretion entry in data set [1] is reported as “excreted in the urine primarily via kidneys”.

With `CC[C@@H](Oc1cccc(CN(CCCOc2ccc(OC)cc2)c2nc3ccccc3o2)c1)C(=O)O` [pemafibrate, (2R)-2-[3-({1,3-benzoxazol-2-yl[3-(4-methoxyphenoxy)propyl]amino}methyl)phenoxy]butanoic acid], the “geometric mean values of Cmax and AUC0-t compared with the liver function normal group” value in data set [2] (fatty liver patient group) is “about 1.2 times”. Further, the “AUC0-t, ratio of geometric mean to persons with normal liver function” value in data set [2] (setting [3]) stood at 1.194; in data set [2] (setting [4]), 2.076; in data set [2] (setting [5]), 4.191. Moreover, the results for the “Cmax, ratio of geometric mean to persons with normal liver function” value in data set [2] (setting [3]), in data set [2] (setting [4]) and in data set [2] (setting [5]) were 1.198, 2.329 and 3.882, respectively. The “ratio of geometric mean values of Cmax and AUC0-t, liver cirrhosis patients to persons with normal liver function” value in data set [2] (mild liver cirrhosis patients (Child-Pugh Class A)) is “approximately 2 fold”; in data set [2] (moderate liver cirrhosis patients (Child-Pugh Class B)), “approximately 4 fold”. Moreover, the route of excretion entry in data set [1] is on record as “rarely excreted via kidneys”.
